Measured values taken from patent publication US7867750B2, “Method for anaerobic degradation of fuel oxygenates and similar compounds” (Rutgers, The State University of New Jersey, priority 2006, dated 2011).
Entries after “also recorded” stand apart in the source; their conditions may differ.

What was measured:
MTBE-utilizing culture [1] = experiment: Effect of methoxylated aromatic compounds as co-substrates on MTBE utilization; format: cell-based; conditions: for lag period of MTBE utilization: 80 μM co-substrate added with MTBE; for effect on MTBE utilization/degradation rate: 80 μM co-substrate, first spiking; for effect on MTBE degradation rate: repeated spiking with MTBE + O-methyl aryl ether
[2] = MTBE loss in abiotic controls (methanogenic and sulfate-reducing media); format: physicochemical
Description: To examine the carbon isotope fractionation during anaerobic MTBE degradation, eight batch experiments are set up. Four serum bottles, each containing 100 ml of sulfate-reducing AK enrichment, are prepared as described above. Sodium molybdate (20 mM), a specific inhibitor of sulfate reduction, is added to two sulfate-reducing AK cultures. The two remaining cultures are kept under conditions promoting sulfate reduction. From the CC enrichment, two of the 100-ml cultures are prepared for each methanogenic and sulfate-reducing enrichment. Each culture had been enriched individually from separate CC sediment microcosms and had never been combined. Methanogenic and sulfate-reducing media are used as abiotic controls. Anaerobic MTBE stock solution is added to all live enrichments and abiotic controls to a final concentration of 25 to 30 mg liter^−1. […] The headspace MTBE concentrations of the cultures are monitored over time. […]
The concentration of MTBE is determined by a static headspace method. A 100-μl headspace sample is analyzed for MTBE with a Hewlett-Packard 5890 gas chromatograph (GC) equipped with a DB1 column (0.53 mm by 30 m; J&W Scientific, Folsom, Calif.) and a flame ionization detector with He as the carrier gas. […] For quantification, external aqueous standards of 3.0, 9.0, 15.0, and 30.0 mg liter^−1 for each compound are used. […]

MTBE-utilizing culture [3] = experiment: MTBE utilization in the presence of various concentrations of syringate; format: cell-based
[4] = system: Coronado Cays sediment microcosms (methanogenic and sulfate-reducing); experiment: Development of MTBE-degrading enrichments from Coronado Cays sediment microcosms; format: cell-based; conditions: sediment with 5 mM lactate, sodium molybdate present
[5] = system: sulfate-reducing Arthur Kill enrichment; experiment: Anaerobic MTBE biodegradation and carbon isotope fractionation, batch experiment; format: cell-based; conditions: 20 mM sodium molybdate, inhibitor of sulfate reduction

## COc1ccccc1O [guaiacol]
MTBE-utilizing culture [1]
  lag period of MTBE utilization: comparable to the culture receiving MTBE alone
  effect on MTBE utilization/degradation rate: adverse effect on MTBE degradation; also recorded: more severe than that of vanillate; also recorded: decrease
  effect on MTBE degradation rate: increased rate of degradation

## COC(C)(C)C [MTBE, Methyl tert-butyl ether]
[2]; both CC experiments, over 60 days
  MTBE loss in abiotic controls: < 10%
[2]; end of the Arthur Kill experiment
  MTBE lost in abiotic controls: 13%

## COc1cc(C(=O)O)ccc1O [vanillate, vanillic acid]
MTBE-utilizing culture [1]
  lag period of MTBE utilization: comparable to the culture receiving MTBE alone
  effect on MTBE utilization/degradation rate: adverse effect on MTBE degradation; also recorded: decrease
  effect on MTBE degradation rate: increased rate of degradation

## COc1cc(C(=O)O)cc(OC)c1O [syringate, syringic acid]
MTBE-utilizing culture [1]
  lag period of MTBE utilization: 55 days
  effect on MTBE utilization/degradation rate: enhances the MTBE utilization rate
  effect on MTBE degradation rate: increased rate of degradation
MTBE-utilizing culture [1]; listed as syringic acid
  effect on MTBE utilization/degradation rate: increased the degradation rate
MTBE-utilizing culture [3]; 50 μM syringate
  effect on MTBE utilization: enhances MTBE utilization
MTBE-utilizing culture [3]; 50 μM syringate as co-substrate
  time in which MTBE is utilized: less than 80 days
MTBE-utilizing culture [3]; 100 μM syringate
  effect on MTBE utilization: enhances MTBE utilization
MTBE-utilizing culture [3]; 500 μM syringate
  effect on MTBE utilization: slightly increases MTBE-degrading activity
MTBE-utilizing culture [3]; 750 μM syringate
  effect on MTBE utilization: slight inhibitory effect on MTBE utilization
MTBE-utilizing culture [3]; 1000 μM syringate
  effect on MTBE utilization: limited MTBE utilization

## [Na+].[Na+].[O]=[Mo](=[O])([O-])[O-] [molybdate, sodium molybdate]
[4]
  effect on sulfate reduction: No significant loss of sulfate
[5]
  effect on MTBE utilization rate: decreases drastically
